Data on three molecules can be found in paper PMC4459817, “Vasculotide reduces endothelial permeability and tumor cell extravasation in the absence of binding to or agonistic activation of Tie2” (EMBO Molecular Medicine, 2015).

The subject of experiment [1] is pancreatic neuroendocrine tumors. The following applies: ref Paez-Ribes et al, 2009; cited from earlier work. The source says: There are at least two plausible explanations for this differential impact of SU on hematogenous metastasis (to lung/liver) vs. lymphogenous metastasis (to LNs). Paez-Ribes et al ...
Experiment [2] relates to advanced metastatic breast cancer. The settings on record: ref Yardley et al, 2012; cited from earlier work. The text has this: Another possible explanation for the apparent insensitivity of MBC to TKI treatments is that the growth of secondary tumors post-metastatic colonization of the lung/liver may still be susceptible to the intended anti-angiogenic inhibition, but that these growth-inhibitory benefits may be diluted by concurrent unintended drug effects that promote tumor spread.

Experiment [3] concerns lung vascular hyperpermeability in endotoxemic mice. The settings on record: ref David et al, 2011; cited from earlier work. The text has this:
(§1) For therapeutic use, recombinant variants or mimetics of multimeric Ang1 have been engineered, including Ang1* and Ang-F1-Fc-F1/Bow-Ang1 (Davis et al, [2003]; Daly et al, [2013]), MAT-Ang1 and COMP-Ang1 (Cho et al, [2004]; Koh, [2013]). […] The development of VT was inspired by a 2004 paper, where several heptapeptides—with no sequence homology to Ang1—were identified to have Tie2-binding potential through an ...

The subject of experiment [4] is mouse model of skin toxicity from cancer radiotherapy. The following applies: ref Korpela et al, 2014; cited from earlier work.
From the text: as §1

Experiment [5] concerns in vivo model of abdominal sepsis. The settings on record: ref Kumpers et al, 2011; cited from earlier work.
From the text: as §1

The next experiment has as its system Tie2. The following applies: PEGylated VT, earlier reports; ref not printed at the statement; cited from earlier work.
From the text: as §1

Experiment [6] concerns the target T1, human Tie2-Fc (Fc-conjugated extracellular domain of Tie2) (human, UniProt Q02763 23-748).
T1 chain: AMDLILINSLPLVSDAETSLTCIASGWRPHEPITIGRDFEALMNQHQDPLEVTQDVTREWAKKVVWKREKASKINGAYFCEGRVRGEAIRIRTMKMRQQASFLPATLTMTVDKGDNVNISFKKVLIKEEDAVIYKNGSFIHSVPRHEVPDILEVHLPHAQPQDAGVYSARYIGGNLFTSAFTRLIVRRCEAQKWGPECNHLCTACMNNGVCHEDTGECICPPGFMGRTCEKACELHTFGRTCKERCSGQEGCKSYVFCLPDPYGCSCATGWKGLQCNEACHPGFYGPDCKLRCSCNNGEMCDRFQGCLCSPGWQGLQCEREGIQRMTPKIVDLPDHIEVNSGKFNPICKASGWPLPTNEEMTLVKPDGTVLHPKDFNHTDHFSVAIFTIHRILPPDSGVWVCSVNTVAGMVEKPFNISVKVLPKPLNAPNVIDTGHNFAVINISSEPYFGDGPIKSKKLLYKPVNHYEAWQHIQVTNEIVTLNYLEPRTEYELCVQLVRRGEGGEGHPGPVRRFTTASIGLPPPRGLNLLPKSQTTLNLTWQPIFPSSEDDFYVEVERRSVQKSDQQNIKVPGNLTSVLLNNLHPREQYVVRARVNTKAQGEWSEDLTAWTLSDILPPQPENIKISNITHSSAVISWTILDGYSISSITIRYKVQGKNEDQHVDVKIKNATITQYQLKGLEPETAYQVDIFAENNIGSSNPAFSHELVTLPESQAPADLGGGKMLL
In words: SPR. Background: SPR reads the build-up and loss of mass on a sensor chip optically.

Experiment [7] deals with T2, mouse Tie2-Fc (Fc-conjugated extracellular domain of Tie2) (mouse, UniProt Q02858 23-746).
T2 chain: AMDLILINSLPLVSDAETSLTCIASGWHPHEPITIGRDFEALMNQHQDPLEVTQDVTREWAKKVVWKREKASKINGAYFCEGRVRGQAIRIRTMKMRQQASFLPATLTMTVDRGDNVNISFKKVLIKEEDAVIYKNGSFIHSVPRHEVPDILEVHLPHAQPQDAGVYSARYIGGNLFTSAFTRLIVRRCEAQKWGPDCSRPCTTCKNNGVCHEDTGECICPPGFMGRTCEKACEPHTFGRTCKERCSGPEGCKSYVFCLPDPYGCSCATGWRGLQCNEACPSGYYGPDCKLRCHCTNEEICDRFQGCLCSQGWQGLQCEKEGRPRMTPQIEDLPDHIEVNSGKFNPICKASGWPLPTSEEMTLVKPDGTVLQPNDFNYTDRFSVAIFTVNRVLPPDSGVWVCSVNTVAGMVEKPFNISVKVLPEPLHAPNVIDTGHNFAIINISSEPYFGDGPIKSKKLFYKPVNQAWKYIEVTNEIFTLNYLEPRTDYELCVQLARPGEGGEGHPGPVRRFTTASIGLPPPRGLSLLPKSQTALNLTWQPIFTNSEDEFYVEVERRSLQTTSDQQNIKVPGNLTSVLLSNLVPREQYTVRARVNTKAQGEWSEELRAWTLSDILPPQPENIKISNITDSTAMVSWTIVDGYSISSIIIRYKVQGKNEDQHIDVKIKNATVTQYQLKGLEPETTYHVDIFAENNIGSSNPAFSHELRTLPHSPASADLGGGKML
In words: SPR.

`CCN(CC)CCNC(=O)c1c(C)[nH]c(/C=C2\C(=O)Nc3ccc(F)cc32)c1C` [sunitinib, reference compound]: the “metastasis to the liver but not the lymph nodes” value in experiment [1] is reported as “increased metastasis to the liver but not the lymph nodes”. Besides, in experiment [2], the “response rate, distally disseminated visceral metastatic disease” value was 9% and the “response rate, locoregionally growing superficial metastatic disease” value is recorded as 20%.
On to “CHHHRHSF [Vasculotide, 4-armed maleimide-functionalized polyethylene glycol (PEG) backbone to link together four cysteine-capped T7 peptides, that is, CHHHRHSF]”, for which, in experiment [3], the “inflammatory induction of lung vascular hyperpermeability” value is “prevented inflammatory induction of lung vascular hyperpermeability”. Besides, in experiment [4], the wound healing entry is recorded as “promoted wound healing”. For the same molecule, the intraperitoneal leukocyte influx entry in experiment [5] is reported as “reduced intraperitoneal leukocyte influx”. Further, in the experiment on Tie2, the Tie2 phosphorylation result is given as “reportedly activates Tie2 phosphorylation”.

B1: recombinant human Ang1 (rhAng1) (ligand, UniProt Q15389 16-498, looked up)
chain: HIGCSNQRRSPENSGRRYNRIQHGQCAYTFILPEHDGNCRESTTDQYNTNALQRDAPHVEPDFSSQKLQHLEHVMENYTQWLQKLENYIVENMKSEMAQIQQNAVQNHTATMLEIGTSLLSQTAEQTRKLTDVETQVLNQTSRLEIQLLENSLSTYKLEKQLLQQTNEILKIHEKNSLLEHKILEMEGKHKEELDTLKEEKENLQGLVTRQTYIIQELEKQLNRATTNNSVLQKQQLELMDTVHNLVNLCTKEGVLLKGGKREEEKPFRDCADVYQAGFNKSGIYTIYINNMPEPKKVFCNMDVNGGGWTVIQHREDGSLDFQRGWKEYKMGFGNPSGEYWLGNEFIFAITSQRQYMLRIELMDWEGNRAYSQYDRFHIGNEKQNYRLYLKGHTGTAGKQSSLILHGADFSTKDADNDNCMCKCALMLTGGWWFDACGPSNLNGMFYTAGQNHGKLNGIKWHYFKGPSYSLRSTTMMIRPLDF
notes: angiopoietin-1, human, recombinant; also called angiopoietin-1; source: bought: R&D Systems (named for the Boyden chamber experiments)
The Kd is the constant that tells how readily two partners part at equilibrium. Lower therefore signals tighter binding. As usually defined, the koff is a measure of how fast the partners let go of each other. With B1, the Kd in experiment [6] was 0.205 nM. Besides, in experiment [7], the koff was found to be 0.00033 s⁻¹.
